Source: patent US20220054493A1, “INHIBITORS OF NGAL PROTEIN” (INSERM (INSTITUT NATIONAL DE LA SANTÉ ET DE LA RECHERCHE …, priority 2019, published 2022)

Tests used:
[1] = molecular target: T1, NGAL (Homo sapiens, UniProt P80188); test: NGAL-induced profibrotic marker synthesis in human cardiac fibroblasts (western blot); format: cell-based; settings: FIGS. 1 and 2 panel C
T1 construct: purchased R&D Systems
Method: (§1) Cell Culture Human cardiac fibroblasts (primary culture) were obtained from Promocell and maintained in medium (Fibroblast Media 3). Cells were cultured according to the manufacturer's instructions and used between passages 5 and 7. Cells were stimulated with aldosterone (10^-8 M, Sigma) or recombinant hNGAL (500 ng/mL, R&D Systems) for 24 h for protein analysis. Mouse kidney fibroblasts (MKF), were isolated from Wild Type (WT) mice. Briefly, mice 7 to 8 weeks were sacrificed by cervical dislocation and kidneys were cleaned and rinsed in cold DPBS (Dulbecco's Phosphate-Buffered Saline). The renal cortex was minced and incubated in Dulbecco's modified eagle medium/Nutrient mixture F-12 (DMEM/F12, Sigma) containing 1 mg/mL collagenase A (Roche) during 25 minutes at 37° C. […]
Total protein aliquots of 20 μg were prepared from cardiac homogenates and electrophoresed on SDS polyacrylamide gels and transferred to Hybond-c Extra nitrocellulose membranes (Amersham Biosciences). […] After densitometric analyses, optical density values were expressed as arbitrary units. Results are expressed as an n-fold increase over the values of the control group in densitometric arbitrary units.
The inhibitory activity of the compounds was evaluated on the NGAL-induced IL6 secretion (NGAL 10 ng/ml) in human cardiac fibroblasts. […]

[2] = test system: human microsomes; test: Stability in human microsomes; format: in vitro ADME
Method: (§2) Two specific toxicity assays have been performed to assess hepatoxicity and cardiotoxicity. Hepatotoxicity was evaluated in isolated hepatocytes from swiss mice and determined by the MTT colorimetric assay. Cardiotoxicity was evaluated using the commercially available Predictor hERG fluorescence polarization kit (Thermo Fisher Scientific). Several ADME assays have been carried out on the compounds generated throughout the project. The following experiments were undertaken: Stability in human microsomes, binding to human plasma protein, and CYP3A4 inhibition assay (Vivid CYP3A4 assay, Thermo Fisher Scientific). Physico-chemical properties were also assessed such as aqueous solubility and chemical stability.

[3] = Binding to human plasma protein; format: in vitro ADME; settings: human, human plasma protein; read-out: hPPB (converted)
Method: as §2

[4] = test system: human plasma protein; test: Binding to human plasma protein; format: in vitro ADME
Method: as §2

[5] = Chemical stability; format: physicochemical
Method: as §2

[6] = test system: CKD Mouse Model; test: Renal fibrosis in the CKD mouse model (sirius red staining); format: in vivo, mice; settings: two months administration; FIG. 14 A-B
Method: Chronic kidney disease (CKD) was induced by subtotal nephrectomy (Nx) in eight-weeks-old FVB male mice (25-26 g). All surgeries were performed under ketamine/xylazine anaesthesia. Briefly, the left kidney was exposed, and the upper and lower poles were tied with a poly-glycolic acid suture line. The peritoneum and skin were then sutured, and the animals were returned to their individual cages. After one week of recovery, the second kidney was removed. Removal of the second kidney represents TO. Sham mice were subjected to the same surgical procedures but neither renal poles nor the right kidney were removed. Mice were monitored for any sign of distress, and those observed to be experiencing severe, unrelievable pain were euthanized. Renal failure was assessed by the measure of plasma creatinine and urea with an automatic analyser (Konelab 20i; Thermo Fisher Scientific, Vernon Hills, Ill.) at weeks 4 and 10 post-Nx.

[7] = molecular target: T2, recombinant murine NGAL (Mus musculus, UniProt P11672); test: NGAL-induced profibrotic and proinflammatory gene expression in renal fibroblasts; format: cell-based; settings: renal fibroblast cells stimulated with recombinant murine NGAL
T2 construct: purchased R&D Systems
T2 sequence (P11672 21-200): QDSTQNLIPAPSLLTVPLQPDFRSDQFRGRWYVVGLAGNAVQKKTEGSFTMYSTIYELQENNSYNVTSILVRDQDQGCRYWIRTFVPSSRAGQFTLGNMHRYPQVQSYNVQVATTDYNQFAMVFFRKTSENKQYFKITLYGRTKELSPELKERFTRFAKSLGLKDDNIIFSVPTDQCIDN
Method: as §1, with “C. The digestion was inactivated by adding culture medium (DMEM/F12+10% FBS) then the cell suspension was passed through a 100-μm cell strainer. After centrifugation, the pellet (containing MKF) was diluted with culture medium then plated in 75 cm^2 culture flask.” for “C.”
Frozen tissues (kidneys, heart) were homogenized in TRIzol (Life Technologies, 15596018) using FastPrep beads (MP-Bio, 6913-100). cDNAs were generated using the Superscript II reverse transcriptase kit (Invitrogen, 18064022), and qPCR was performed as previously described. Briefly, transcript levels were analysed in a CFX396 apparatus (Biorad). […]

T1 sequence (P80188 21-198): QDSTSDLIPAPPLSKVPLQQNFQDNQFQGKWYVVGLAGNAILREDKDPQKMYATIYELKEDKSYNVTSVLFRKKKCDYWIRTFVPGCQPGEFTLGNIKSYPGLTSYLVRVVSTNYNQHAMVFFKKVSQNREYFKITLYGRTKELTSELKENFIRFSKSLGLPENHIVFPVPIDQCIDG

NGAL-induced profibrotic marker (col1, col III, fibronectin, Gal3, OPN) synthesis [1]: inhibited | microsomes degradation, left after 2 h ([2]; after 2 h): 2.2% | Micro Stability ([2]; human microsomes): 2.19% | fraction unbound [3]: 0.288 | PPB (binding to plasma proteins) [4]: low | Chemical Stability [5]: 103% | stability to acidic pH / digestive content [5]: fully stable | NGAL-induction of inflammatory (IL6, MCP1) gene expression ([7]; FIG. 16): inhibited | NGAL-induction of profibrotic (Collagen1, fibronectin, aSMA) gene expression ([7]; FIG. 16A): inhibited
Structure (SMILES): CC(=O)c1cccc(S(=O)(=O)NCc2ccccc2-n2cccn2)c1 [GPZ614741]
interstitial fibrosis associated to CKD (sirius red staining) [6]: strong antifibrotic effect
